Laboratory results reported in ChEMBL document CHEMBL1201862, “PubChem BioAssay data set” (2004).
Active and inactive are the calls of the source. Rule as the data show it, for most assays here: actives have a measured EC50 and inactives only a lower limit.

What was measured:
cells = assay type: functional
[1] = molecular target: T1, Corticotropin-releasing factor receptor 2/Corticotropin-releasing factor-binding protein (Homo sapiens, UniProt P24387+Q13324); test: activators of CRF receptor 2 with binding protein – uHTS hits, confirmation (AID 602473); assay type: functional; settings: read-out: EC50_Mean
T1 sequence (Q13324 whole entry): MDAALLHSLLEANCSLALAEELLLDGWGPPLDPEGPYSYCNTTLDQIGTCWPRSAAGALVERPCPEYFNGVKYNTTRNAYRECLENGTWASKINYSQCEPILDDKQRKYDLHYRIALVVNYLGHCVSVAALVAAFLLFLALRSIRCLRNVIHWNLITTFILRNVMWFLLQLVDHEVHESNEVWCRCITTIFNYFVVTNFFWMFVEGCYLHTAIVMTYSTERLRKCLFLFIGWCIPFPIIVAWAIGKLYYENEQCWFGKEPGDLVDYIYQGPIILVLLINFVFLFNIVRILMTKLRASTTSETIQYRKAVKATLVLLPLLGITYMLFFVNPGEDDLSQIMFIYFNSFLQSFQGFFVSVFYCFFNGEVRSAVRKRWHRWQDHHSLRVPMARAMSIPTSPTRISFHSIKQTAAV
T1 sequence (P24387 whole entry): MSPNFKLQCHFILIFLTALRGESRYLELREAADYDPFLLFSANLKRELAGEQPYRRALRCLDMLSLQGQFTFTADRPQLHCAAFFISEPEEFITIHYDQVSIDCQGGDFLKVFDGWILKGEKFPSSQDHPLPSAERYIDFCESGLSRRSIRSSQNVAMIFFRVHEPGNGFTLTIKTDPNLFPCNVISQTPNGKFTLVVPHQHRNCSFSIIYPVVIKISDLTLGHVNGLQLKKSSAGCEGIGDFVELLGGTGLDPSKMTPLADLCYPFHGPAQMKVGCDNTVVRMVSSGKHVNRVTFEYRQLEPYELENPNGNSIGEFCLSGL

[2] = molecular target: T1, Corticotropin-releasing factor receptor 2/Corticotropin-releasing factor-binding protein; test: Dose Response confirmation of uHTS hits for small molecule antagonists of the CRF-binding protein and CRF-R2 receptor complex.; assay type: functional; settings: read-out: IC50_Mean
[3] = viability of uninfected HEp-2 cells – cell-based, HTS, cytotoxicity control for RSV inhibitor project, dose response (AID 2410); assay type: functional; settings: human respiratory syncytial virus
Streptokinase A = molecular target: T2, Streptokinase A (Streptococcus pyogenes serotype M1, UniProt P10520); test: viability-normalized secreted streptokinase activity reduction – plasminogen activation absorbance, OD405, dose response (AID 1914); assay type: functional, Streptococcus pyogenes M1 GAS;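 also: secreted streptokinase activity via plasminogen activation per viability signal from cell pellet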
T2 sequence (P10520 whole entry): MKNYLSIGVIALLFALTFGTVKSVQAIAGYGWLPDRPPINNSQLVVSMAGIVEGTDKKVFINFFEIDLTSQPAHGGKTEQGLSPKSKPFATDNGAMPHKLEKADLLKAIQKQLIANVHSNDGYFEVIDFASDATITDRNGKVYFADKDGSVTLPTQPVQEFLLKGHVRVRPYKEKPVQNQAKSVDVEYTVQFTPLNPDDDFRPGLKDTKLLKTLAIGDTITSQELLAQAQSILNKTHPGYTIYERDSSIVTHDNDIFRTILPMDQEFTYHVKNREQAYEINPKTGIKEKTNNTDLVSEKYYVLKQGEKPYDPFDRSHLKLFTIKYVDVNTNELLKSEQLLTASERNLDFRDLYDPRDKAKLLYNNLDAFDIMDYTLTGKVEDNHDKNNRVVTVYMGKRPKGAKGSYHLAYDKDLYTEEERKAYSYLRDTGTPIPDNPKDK

Streptococcus = test: GAS UMAA2166 growth inhibition – luminescence, BacTiterGlo, counter-screen for streptokinase expression inhibitor project, dose response (AID 1915); assay type: functional, organism-based;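 also: potency for reduction of bacterial viability or growth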
[4] = system: Streptococcus sp. 'group A'; test: Streptococcus pyogenes SK(-)GAS viability under kanamycin – luminescence, BacTiterGlo, confirmation, counter-screen for streptokinase expression inhibitor project, dose response (AID 1900); assay type: functional, organism-based
[5] = fluconazole-exposed Candida albicans growth modulators – fluorescence, retest, confirmation (AID 2467); assay type: functional, cell-based
[6] = NIH-3T3 fibroblast cytotoxicity, dose response, cytotoxicity control, cell-based, fluorescence, Alamar Blue, secondary assay (AID 2327); assay type: functional;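 also: NIH-3T3 mouse fibroblasts cultured with fluconazole at 8 µg/mL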
[7] = luciferase reporter signal suppression in cells – H4 neuroglioma cells, luminescence, dose response (AID 1990); assay type: functional, cell-based
[8] = Luminescence Cell-Based Dose Response HTS to Identify Inhibitors of 5'UTR Stem-Loop Driven Prion Protein mRNA Translation in H4 Neuroglioblastoma Cells. [Related pubchem assays: 1827 (Project Summary), 1813 (Primary HTS)]; assay type: functional
[9] = alpha-synuclein stem-loop luciferase translation blockers – H4 neuroglioma cells, luminescence, confirmation (AID 1988); assay type: functional, cell-based
[10] = molecular target: T3, Rac GTPase-activating protein 1 (Homo sapiens, UniProt Q9H0H5); test: blockers of MgcRacGAP-driven Rac1 GTP hydrolysis – biochemical, ADP Hunter fluorescence, primary and confirmatory, confirmation (AID 624330); assay type: functional
T3 sequence (Q9H0H5 whole entry): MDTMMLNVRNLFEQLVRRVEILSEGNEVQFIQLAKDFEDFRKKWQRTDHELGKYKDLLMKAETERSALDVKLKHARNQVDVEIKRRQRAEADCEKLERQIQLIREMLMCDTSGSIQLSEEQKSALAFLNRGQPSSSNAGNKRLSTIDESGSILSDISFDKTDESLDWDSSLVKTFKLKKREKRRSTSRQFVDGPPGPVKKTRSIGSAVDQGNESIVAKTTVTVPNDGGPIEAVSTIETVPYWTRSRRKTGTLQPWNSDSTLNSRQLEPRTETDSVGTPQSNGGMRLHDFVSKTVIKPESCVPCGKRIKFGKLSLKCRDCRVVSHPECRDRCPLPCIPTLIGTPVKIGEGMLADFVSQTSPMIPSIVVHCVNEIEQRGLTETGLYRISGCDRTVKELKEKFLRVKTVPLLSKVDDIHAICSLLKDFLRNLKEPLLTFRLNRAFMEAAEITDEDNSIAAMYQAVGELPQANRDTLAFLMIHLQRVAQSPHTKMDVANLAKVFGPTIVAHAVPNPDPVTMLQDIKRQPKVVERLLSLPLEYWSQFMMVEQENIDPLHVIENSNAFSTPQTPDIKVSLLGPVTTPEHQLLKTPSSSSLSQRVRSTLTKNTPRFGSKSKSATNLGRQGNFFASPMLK

INS1 = test: INS-1E survival protection against cytokine death – cell-based, luminescence, retest, dose response (AID 449756); assay type: functional; settings: Rattus norvegicus;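 also: cell death triggered by IL-1 beta plus TNF-alpha plus IFN-gamma mixture; protective hits raise ATP signal compared with cytokine alone wells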

CC(C)(C)C(=O)/C=C/Nc1ccccc1O
IC50 (cells): 3.27 µM (active)

O=C(CC1CCCC1)OCn1nnc2ccccc2c1=O
IC50 (cells): 11.1 µM (active)

CC(C)C(=O)Nc1cccc(-c2nc3ccccc3c(=O)o2)c1
IC50 (cells): 20.7 µM (active)

O=C(COC(=O)c1cc(Br)ccc1Cl)NC1CCCC1
IC50 (cells): 18.2 µM (active)

c1ccc(C2=Nc3ccccc3OC2)cc1
IC50 (cells): 7.95 µM (active)

COC(=O)C(OC(=O)c1ccccc1)C(C)Br (stereo not drawn)
EC50 [1]: > 53 µM (inactive) | IC50 [2]: > 47.1 µM (inactive)

Cc1ccc(S(=O)(=O)N2CCC(c3nc4c(nnn4Cc4ccccc4)c(=O)[nH]3)CC2)cc1
EC50 [1]: > 53 µM (inactive) | IC50 [2]: > 47.1 µM (inactive)

FC(F)(F)c1nnc2sc(-c3cccs3)nn12
EC50 [1]: > 53 µM (inactive) | IC50 [2]: > 47.1 µM (inactive)

Nc1[nH]nc(C2CC2)c1N=Nc1ccc(Cl)c(Cl)c1
CC50 [3]: 17.5 µM (active) | EC50 (Streptokinase A): 17 µM (active) | EC50 (Streptococcus): > 150 µM (not active) | EC50 [4]: 4.36 µM (active)

CC(C)CCOP(=O)(c1ccc(N(C)C)cc1)C(Nc1ccccc1)c1ccc(N(C)C)cc1 (stereo not drawn)
EC50 [1]: > 53 µM (inactive) | IC50 [2]: > 47.1 µM (inactive)

COC(=O)c1ccc(/C(O)=C(\C#N)c2nc3ccccc3s2)cc1
EC50 [1]: > 53 µM (inactive) | IC50 [2]: 3.93 µM (active)

COc1cccc(OC(=O)c2cc3ccccc3oc2=O)c1
IC50 (cells): > 50 µM (active)

O=[N+]([O-])c1ccccc1C=NNC(=S)NN=Cc1ccccc1[N+](=O)[O-]
EC50 [1]: > 53 µM (inactive) | IC50 [2]: > 47.1 µM (inactive)

CCCN1CCN(C2CCCCC2NS(=O)(=O)c2ccc(Cl)cc2)CC1 (stereo not drawn)
EC50 [1]: > 53 µM (inactive) | IC50 [2]: > 47.1 µM (inactive)

O=C(OCc1c(Cl)cccc1Cl)c1ccccn1
IC50 (cells): 10.6 µM (active)

Nc1nc(NCc2ccco2)nc(N2CCCCCC2)c1[N+](=O)[O-]
EC50 (Streptokinase A): > 150 µM (not active) | EC50 (Streptococcus): 7.75 µM (active) | EC50 [4]: 2.82 µM (active)

O=C(COc1ccccc1)NCCSCc1ccc(Cl)cc1
IC50 (cells): 22.2 µM (active)

COc1cc(C(=O)NC(=S)N(CCc2ccccc2)CCc2ccccc2)cc(OC)c1OC
EC50 [5]: 4.2 µM (active) | EC50 (Streptokinase A): > 150 µM (not active) | EC50 [6]: 28.6 µM (active) | EC50 (Streptococcus): 17.9 µM (active) | EC50 [4]: 0.525 µM (active) | EC50 [7]: > 120 µM (not active) | EC50 [8]: 12.2 µM (active) | EC50 [9]: 10.6 µM (active)

O=C(Nc1nnc(-c2ccc(Br)cc2)o1)c1cccc(N2C(=O)CCC2=O)c1
EC50 (Streptokinase A): > 150 µM (not active) | EC50 (Streptococcus): 14.1 µM (active) | EC50 [4]: 4.43 µM (active)

CN(C)c1ncnc2c1N=C1CC(C)(C)CC(NCCCC(=O)O)=C1S2
EC50 [1]: > 53 µM (inactive) | IC50 [10]: 78.8 µM (active) | IC50 [2]: > 47.1 µM (inactive)

COc1ccc(/C=C2\CCC(C3CCCC3)C2=O)cc1OC (stereo not drawn)
EC50 [1]: > 53 µM (inactive) | IC50 [2]: > 47.1 µM (inactive)

COc1cccc(C(=O)N2C(C(=O)O)CSC2c2ccccc2Cl)c1 (stereo not drawn)
EC50 (Streptokinase A): > 150 µM (not active) | EC50 (Streptococcus): > 150 µM (not active) | EC50 [4]: > 150 µM (not active)

CCCCOC(=O)c1ccc(NC(c2ccc(C)cc2)P(=O)(OC)OC)cc1 (stereo not drawn)
EC50 [1]: > 53 µM (inactive) | AC50 (INS1): 30.8 µM (active) | IC50 [2]: > 47.1 µM (inactive)

Cc1nn(-c2ccc([N+](=O)[O-])cc2)c(N)c1-c1ccccc1
EC50 [1]: > 53 µM (inactive) | IC50 [2]: > 47.1 µM (inactive)

O=[N+]([O-])c1ccc(CN2CCN(c3ccccc3)CC2)o1
IC50 (cells): 0.13 µM (active)

Cc1ccc(/C=C2\SC(N3CCCC3)=NC2=O)cc1
IC50 (cells): 5.13 µM (active)

COc1ccc(C2CC(c3cccs3)=NN2C(=O)c2ccccc2)cc1OC (stereo not drawn)
EC50 [1]: > 53 µM (inactive) | IC50 [2]: > 47.1 µM (inactive)

CCC/C(=N/CC(=O)O)C1=C(O)C(C(=O)OC)C(C)(C)CC1=O (stereo not drawn)
EC50 [1]: > 53 µM (inactive) | IC50 [2]: > 47.1 µM (inactive)

CN(C(=O)COC(=O)c1ccc([N+](=O)[O-])cc1Cl)C1CCCCC1
IC50 (cells): 6.26 µM (active)

Cc1cc(C)n(-c2nc(SCC(=O)O)c3c4c(sc3n2)CCCC4)n1
EC50 (Streptokinase A): > 150 µM (not active) | EC50 (Streptococcus): > 150 µM (not active) | EC50 [4]: 8.77 µM (active)

O=C(NCc1ccc2c(c1)OCO2)C(=O)NCC1OCCN1S(=O)(=O)c1ccc(Br)cc1 (stereo not drawn)
EC50 (Streptokinase A): > 150 µM (inconclusive) | EC50 (Streptococcus): > 150 µM (not active) | EC50 [4]: > 150 µM (not active)

CCOC(=O)c1c(C)[nH]c(C)c1C(=O)COC(=O)/C=C/c1ccc(Cl)cc1
EC50 [1]: > 53 µM (inactive) | IC50 [2]: > 47.1 µM (inactive)

CC1C(=O)C(C)C(c2cccs2)NC1c1cccs1 (stereo not drawn)
EC50 [1]: > 53 µM (inactive) | IC50 [2]: > 47.1 µM (inactive)

Cc1ccccc1N1CCN(C(=O)CCN2C(=O)c3ccccc3C2=O)CC1
EC50 (Streptokinase A): > 150 µM (not active) | EC50 (Streptococcus): > 150 µM (not active) | EC50 [4]: > 150 µM (not active)

CSCSC1=C(C#N)C(c2ccccc2Cl)C(C(C)=O)=C(C)N1 (stereo not drawn)
EC50 [1]: > 53 µM (inactive) | IC50 [2]: > 47.1 µM (inactive)

CCOC(=O)CN(C#N)c1nc(N(C)C)nc(N(C)C)n1
IC50 (cells): 26.9 µM (active)

Cc1cccc(OCC(=O)Nc2ccncc2)c1
EC50 (Streptokinase A): > 150 µM (not active) | EC50 (Streptococcus): > 150 µM (not active) | EC50 [4]: > 150 µM (not active)

CC1CCN(C(=O)c2nc[nH]c2C(=O)N[C@@H](C)C(=O)OC(C)(C)C)CC1
EC50 [1]: > 53 µM (inactive) | IC50 [2]: > 47.1 µM (inactive)

CCN(CC(=O)Nc1ccc(OC)cc1)C(=O)c1cc(S(=O)(=O)N2CCOCC2)ccc1N1CCCC1
EC50 [1]: > 53 µM (inactive) | IC50 [2]: > 47.1 µM (inactive)

COC(=O)C1(C(C[N+](=O)[O-])c2ccc(C)cc2)C(=O)NCC1c1ccco1 (stereo not drawn)
EC50 (Streptokinase A): > 150 µM (inconclusive) | EC50 (Streptococcus): 76.6 µM (active) | EC50 [4]: 8.44 µM (active)

COc1cccc(C2C(C(=O)c3ccc(C)o3)=C(O)C(=O)N2CCN2CCOCC2)c1OC (stereo not drawn)
EC50 [1]: > 53 µM (inactive) | IC50 [2]: > 47.1 µM (inactive)
